Measurements from patent publication US5446186A, “Structure and synthesis of nitrophenyl-EGTA, a caged calcium, intermediates thereof and a method of producing a high photochemical yield of liberated calcium” (priority 1993, dated 1995).
“Also recorded” adds a separate entry of the source. Read-outs that look alike come from different tables or passages of the source. Each block holds one compound with its values, some of them ahead of it.

Experiments:
[1] = test system: chemically skinned psoas fibers from rabbit skeletal muscle; assay: Ca-induced contraction of chemically skinned skeletal muscle fibers after laser flash photolysis; format: cell-based; details: for time to achieve half-maximal tension: 15° C., 347 nm ruby laser flash, NP-EGTA:Ca^2+ 1.9 mM at 1 mM free Mg^2+, or DM-nitrophen:Ca^2+ 1.4 mM at 40 μM free Mg^2+; for tension transients, NP-EGTA compared with DM-nitrophen: photoreleased Ca^2+; for maximal contraction / full tension after laser flash: single 347 nm ruby laser flash, free Mg^2+ 1 mM (NP-EGTA), 40 μM (DM-nitrophen); for Ca^2+ release as rate-limiting step for contraction: skinned skeletal muscle fiber
Description: The arrow indicates the time of a pulse from a frequency-doubled ruby laser (347 nm). For DM-nitrophen, before photolysis, the muscle-bathing solution contained (mM): Tes (100), HDTA (27.91), ATPNa2 (3.0), creatine phosphate (20), glutathione (10), DM-nitrophen (2.0), MgCl2 (1.19), CaCl2 (1.60). In the NP-EGTA solution there was (mM): Tes (100), HDTA (25.35), ATPNa2 (5.50), creatine phosphate (20), glutathione (10), NP-EGTA (2.1), MgCl2 (7.0), CaCl2 (1.9). The pH of both solutions was 7.0; the ionic strength was 0.2M. Tension development was measured as in Ref. 24.
Photolysis of nitrophenyl-EGTA:Ca^2+ and DM-nitrophen:Ca^2+ complexes were used to release Ca^2+ rapidly in chemically skinned psoas fibers from rabbit skeletal muscle. […] The time to achieve half-maximal tension using NP-EGTA was 17.9 ms and 18.1 ms with DM-nitrophen at 15° C. (see FIG. 4). […] It is interesting that there are no major effects, on the rate of the development of tension nor on the maximal contraction, due to a change in [Mg]free from 40 μM to 1 mM in these experiments.

[2] = pH 7.2; before photolysis; read-out: Kd for Ca^2+ (comparison chelators); cited from earlier work
[3] = DM-nitrophen:Ca^2+ complex; cited from earlier work
[4] = Quantum yield of photolysis by HPLC, comparison to caged-Pi; format: physicochemical
Protocol: The filtered output of 1000-W high pressure Hg arc lamp was used to photolyze solutions of NP-EGTA (1.77 mM) or caged-Pi (3.12 mM) in buffer (40 mM hepes, 100 mM KCl, pH 7.2) with absorbances of 0.0105 in a cuvette with a pathlength of […]. Each solution also contained inosine (100 mM) as the internal standard.
On the left, t=0 s, on the fight, t=15 s.
On the left, t=0 s, on the fight, t=15 s. HPLC was performed using a Novapak C18 reverse-phase HPLC column and two Waters 501 pumps fitted with a Waters 680 automated control module delivering 2 ml/min. Pump A delivered […] and pump B 80% acetonitrile/0.052% TFA. The gradient was for 0-5 min 100% A, from 5-20 min a linear change to 80% A, and from 20-40 min 80% A. The eluent was monitored by a Waters 990 photodiode array detector and chromatograms are shown at 260 nm.
The quantum yield of NP-EGTA photolysis was determined by comparison to that of caged-Pi which has previously been determined to have a quantum yield of photolysis of 0.54 (17). The time-course of disappearance of the caged compounds was followed by HPLC analysis of the reaction mixture (FIG. 2). The amount of NP-EGTA or caged-Pi remaining in the reaction mixture was normalized for each HPLC analysis by comparison to a photochemically inert internal standard, inosine (100 mM). […] Under the same conditions (i.e. flux density), 10.3% of NP-EGTA was photolyzed when saturating Ca^a+ (3.0 mM) was present (FIG. 2b). Thus, the quantum yield of photolysis of the NP-EGTA:Ca^2+ complex is 0.23.

[5] = Ca^2+ affinity by titration of chelator with Ca^2+, fluo-3 emission, Scatchard analysis; format: binding; details: 40 mM hepes, 100 mM KCl, pH 7.2, 20° C.; before photolysis
Description: The affinity of NP-EGTA for Ca^2+ was obtained by titration of the chelator with incremental additions of Ca^2+. […] For any chelator:Ca^a+ complex to function effectively as a caged Ca, the pre-photolysis affinity should be high for two reasons. First, it is crucial that the resting or pre-photolysis [Ca^2+ ] is very low, i.e. that it is non-activating or sub-threshold for the biological system being investigated. The Kd^Ca and the total amounts of Ca^2+ and chelator determine [Ca^2+ ]free. Secondly, the percentage of chelator loaded with Ca^2+ before photolysis is important as this is a factor which determines how much Ca^2+ is liberated upon photolysis, as Ca^2+ can only be photoreleased if it is complexed. Also, if the chelator is frilly loaded, then the photoreleased Ca^2+ will not be rebound by unphotolysed, unloaded chelator, i.e. step increases rather than pulses of Ca^2+ will be produced (see ref. 19, 20).

[6] = Mg^2+ affinity by titration of Mg^2+-indicator mag-fura-red without and with NP-EGTA; format: binding; details: 40 mM hepes, 100 mM KCl, pH 7.2, 25° C.; absorbance at 480 nm
Protocol: The Mg^2+ affinity of NP-EGTA was determined by titration of the Mg^2+ -indicator, mag-fura-red (20 μM) without and with NP-EGTA (10 mM) in buffer (40 mM hepes, 100 mM KCl, pH=7.2) at 25° C.

[7] = Selectivity for Ca^2+ versus Mg^2+: fluo-3 signal on addition of 1 mM Mg^2+ and on irradiation; format: binding
[8] = Absorption and fluorescence spectral properties; format: physicochemical
Protocol: FIG. 1 is an absorption spectra of nitrophenyl-EGTA. The absorption spectrum of a solution of NP-EGTA ([…]) in buffer (40 mM hepes, 100 mM KCl, pH 7.2) is shown (spectrum a). The spectrum is altered (spectrum b) on addition of saturating Ca^2+ (0.20 mM). Photolysis of this sample for 300 s with the filtered output of a 1-kW Hg are lamp yielded photoproducts with spectrum (c).
The absorption spectra of NP-EGTA without and with saturating Ca^2+ are shown in FIG. 1(a) and (b) respectively. The extinction coefficients at 260 and 347 nm are 5.52×10^3 M^-1 cm^-1 and 974 M^-1 cm^-1 respectively in Ca^2+ -free buffer (40 mM hepes, 100 mM KCl, pH 7.2). Saturating Ca^2+ produces a 10% decrease in the absorption at 260 nm. The absorption spectrum changes to that shown in FIG. 1(c) upon complete photolysis in the presence of Ca^2+. […] In fact, fluo-3 saturated with Ca^2+ is about 2.1×10s-fold more fluorescent at 530 nm than NP-EGTA is at 400 nm.

[9] = Ca^2+-free buffer, 40 mM hepes, 100 mM KCl, pH 7.2

SMILES: Cc1ccc(N(CC(=O)O)CC(=O)O)c(O[C@@H]2CCC[C@@H]2Oc2cc(C(O)c3cc4c(cc3[N+](=O)[O-])OCO4)ccc2N(CC(=O)O)CC(=O)O)c1 (some centres unmarked) [nitr-7]
- Ca^2+ released on 50% photolysis ([chelator]:[Ca^2+] 2 mM:1.50 mM): 3 mM

SMILES: Cc1ccc(N(CC(=O)O)CC(=O)O)c(OCCOc2cc(C(O)c3cc4c(cc3[N+](=O)[O-])OCO4)ccc2N(CC(=O)O)CC(=O)O)c1 (centres unmarked) [nitr-5]
- Ca^2+ released on 50% photolysis (1.0 mM Ca^2+ present): 0.80 mM
- prephotolysis free [Ca^2+] (1.0 mM Ca^2+ present): 0.145 mM

SMILES: COc1cc(C(CN(CC(=O)O)CC(=O)O)N(CC(=O)O)CC(=O)O)c([N+](=O)[O-])cc1OC (centres unmarked) [DM-nitrophen, reference compound]
- time to achieve half-maximal tension [1]: 18.1 ms
- tension transients, NP-EGTA compared with DM-nitrophen [1]: identical, rapid tension transients
- maximal contraction / full tension after laser flash [1]: Rapid development of maximal tension
- Ca^2+ release as rate-limiting step for contraction [1]: not rate-limiting
- Kd [2]: 0.005 µM
- Ca^2+ release t1/2 [3]: ≤ 180 microseconds

- percent photolyzed ([4]; after 15 s, caged-Pi 3.12 mM, 0.25 min): 15.1%
SMILES: CC(OP(=O)(O)O)c1ccccc1[N+](=O)[O-] (centres unmarked) [caged-Pi, 1-(o-nitrophenyl)-ethyl phosphate, reference compound]

SMILES: O=C(O)CN(CCOCCOCCN(CC(=O)O)CC(=O)O)CC(=O)O [EGTA, ethylenebis(oxyethylenenitrilo)tetraacetic acid]
- Kd [2]: 0.15 µM

- Kd [6]: 8800 µM
- Kd for Mg^2+ [6]: in the mM range
- quantum yield of photolysis, in the absence of Ca^2+ ([4]; Ca^2+-free, pH 7.2): 0.20
- percent photolyzed with Ca^2+ ([4]; after 15 s, saturating Ca^2+ (3.0 mM), 0.25 min, 1770 µM): 10.3%
- percent photolyzed without Ca^2+ ([4]; same flux density, Ca^2+-free, 1770 µM): 8.91%
- quantum yield of photolysis, in the presence of Ca^2+ ([4]; saturating Ca^2+ (3.0 mM), pH 7.2): 0.23
- photolysis efficiency relative to DM-nitrophen ([4]; versus DM-nitrophen (ref. 4)): the same as that of DM-nitrophen
- photolysis efficiency relative to nitr-5 or nitr-7 ([4]; versus nitr-5 or nitr-7 (ref. 2)): ~6 times
- fluorescence emission [8]: virtually non-fluorescent
- extinction coefficient at 260 nm [8, 9]: 5520 M⁻¹ cm⁻¹
- extinction coefficient at 347 nm [8, 9]: 974 M⁻¹ cm⁻¹
- decrease in absorption at 260 nm on saturating Ca^2+ ([8]; saturating Ca^2+): 10%
SMILES: O=C(O)CN(CCOCCOCC(c1ccccc1[N+](=O)[O-])N(CC(=O)O)CC(=O)O)CC(=O)O (centres unmarked) [NP-EGTA]
- Kd [5]: 0.08 µM
- effect of 1 mM Mg^2+ on fluo-3 signal ([7]; 0.655 mM NP-EGTA with 0.55 mM Ca^2+): no effect on the fluo-3 signal; also recorded: no increase in the fluo-3 signal
- Ca^2+ liberation on irradiation in presence of Mg^2+ (fluo-3 signal) ([7]; frequency-doubled ruby laser, 347 nm): liberates Ca^2+ from the NP-EGTA:Ca^2+ complex
- time to achieve half-maximal tension [1]: 17.9 ms
- time to achieve half-maximal tension ([1]; listed as nitrophenyl-EGTA): 18 ms
- tension transients, NP-EGTA compared with DM-nitrophen [1]: identical, rapid tension transients
- maximal contraction / full tension after laser flash [1]: releases sufficient Ca^2+ to generate full tension in the muscle fiber
- maximal contraction / full tension after laser flash ([1]; listed as nitrophenyl-EGTA): maximal contraction after a single flash
- Ca^2+ release as rate-limiting step for contraction [1]: also not rate-limiting
